Among the data in patent US20230203043A1, “NOVEL IMIDAZOPYRAZINE DERIVATIVES” (Hoffmann-La Roche Inc., priority 2020, published 2023) are IC90 values, retold here.

SMILES strings stand for the structures. Where a name gives a salt, the structure may show the parent alone.

For the first assay, the system named is Acinetobacter baumannii ATCC17961. As to the kind of experiment: Antimicrobial susceptibility testing: 90% growth inhibitory concentration (IC90) determination in Iso-Sensitest broth, OD600 growth. It is filed as cell-based. The settings on record: Acinetobacter baumannii, ATCC17961, 16 h, read-out: A. baumannii ATCC 17961 IC90 (uM), strain ATCC 17961, OD600 growth over 16 h. On the procedure:
Antimicrobial Susceptibility Testing:
90% Growth Inhibitory Concentration (IC90) Determination
The in vitro antimicrobial activity of the compounds was determined according to the following procedure:
The assay used a 10-points Iso-Sensitest broth medium to measure quantitatively the in vitro activity of the compounds against Acinetobacter baumannii ATCC17961 or ATCC17968.
Stock compounds in DMSO were serially twofold diluted (e.g. range from 50 to 0.097 μM final concentration) in 384 wells microtiter plates and inoculated with 49 μl the bacterial suspension in Iso-Sensitest medium to have a final cell concentration of ˜5×10^(5) CFU/ml in a final volume/well of 50 ul/well. Microtiter plates were incubated at 35±2° C.
Bacterial cell growth was determined with the measurement of optical density at λ=600 nm each 20 minutes over a time course of 16 h. Growth inhibition was calculated during the logarithmic growth of the bacterial cells with determination of the concentration inhibiting 50% (IC50) and 90% (IC90) of the growth.
Table 7 provides the 90% growth inhibitory concentrations (IC90) in micromoles per liter of the compounds of present invention obtained against the strain Acinetobacter baumannii ATCC17961 and/or ATCC17968.
The term IC90 denotes the concentration at which the effect reaches the 90% level. As to `CCc1cc(Nc2nccn3c(-c4cn(CC#N)nc4C(F)(F)F)cnc23)ccc1C(=O)NCC(=O)N1CCCC(N)C1` (stereo not drawn) [Example 506, N-[2-(3-amino-1-piperidyl)-2-oxo-ethyl]-4-[[3-[1-(cyanomethyl)-3-(trifluoromethyl)pyrazol-4-yl]imidazo[1,2-a]pyrazin-8-yl]amino]-2-ethyl-benzamide formate], the IC90 amounted to 0.191 µM.

Take `O=C(N[C@@H]1CNC[C@H]1O)N1CCN(C(=O)c2ccc(Nc3nccn4c(-c5c[nH]nc5C(F)(F)F)cnc34)cc2Cl)CC1` [Example 441, 4-[2-chloro-4-[[3-[3-(trifluoromethyl)-1H-pyrazol-4-yl]imidazo[1,2-a]pyrazin-8-yl]amino]benzoyl]-N-[(3R,4R)-4-hydroxypyrrolidin-3-yl]piperazine-1-carboxamide formate]: the IC90 came out at 0.617 µM.

As for `Cc1cc(Cn2cc(-c3cnc4c(Nc5ccc(C(=O)N6CCNCC6)c(Cl)c5)nccn34)c(C(F)(F)F)n2)n[nH]1` [Example 118, [2-chloro-4-[[3-[1-[(5-methyl-1H-pyrazol-3-yl)methyl]-3-(trifluoromethyl)pyrazol-4-yl]imidazo[1,2-a]pyrazin-8-yl]amino]phenyl]-piperazin-1-ylmethanone formate], the IC90 worked out at 0.343 µM.

With `CCc1cc(Nc2nccn3c(-c4c[nH]nc4C(F)(F)F)cnc23)ccc1C(=O)NCCCNC(=O)[C@H]1CC[C@@H](N)C1` [Example 535, N-(3-((1S,3R)-3-aminocyclopentane-1-carboxamido)propyl)-2-ethyl-4-((3-(3-(trifluoromethyl)-1H-pyrazol-4-yl)imidazo[1,2-a]pyrazin-8-yl)amino)benzamide formate], the IC90 was found to be 0.247 µM.

As for `O=C(CC1CCNCC1)N1CCN(C(=O)c2ccc(Nc3nccn4c(-c5cn(CC(F)F)nc5C(F)(F)F)cnc34)cc2Cl)CC1` [Example 578, 1-(4-(2-chloro-4-((3-(1-(2,2-difluoroethyl)-3-(trifluoromethyl)-1H-pyrazol-4-yl)imidazo[1,2-a]pyrazin-8-yl)amino)benzoyl)piperazin-1-yl)-2-(piperidin-4-yl) ethan-1-one formate], the IC90 was 0.394 µM.

Take `N[C@H]1CC[C@@H](C(=O)N2CCN(C(=O)c3ccc(Nc4nccn5c(-c6c[nH]nc6C(F)(F)F)cnc45)cc3Cl)CC2)C1` [Example 340, [4-[(1R,3S)-3-aminocyclopentanecarbonyl]piperazin-1-yl]-[2-chloro-4-[[3-[3-(trifluoromethyl)-1H-pyrazol-4-yl]imidazo[1,2-a]pyrazin-8-yl]amino]phenyl]methanone formate]: the IC90 worked out at 0.194 µM.

The same assay, now with this note: Acinetobacter baumannii, ATCC17961, 16 h, strain ATCC 17961, OD600 growth over 16 h, read-out: A. baumannii ATCC 17961 IC90.
For the compound `O=C(NC1CCNCC1)c1ccc(Nc2nccn3c(-c4c[nH]nc4C(F)(F)F)cnc23)cc1Cl` [Example 413, 2-chloro-N-piperidin-4-yl-4-[[3-[3-(trifluoromethyl)-1H-pyrazol-4-yl]imidazo[1,2-a]pyrazin-8-yl]amino]benzamide], the IC90 is 2.2 µM.

For the compound `N#CCn1cc(-c2cnc3c(Nc4ccc(C(=O)N5CCC(N)CC5)c(Cl)c4)nccn23)c(C(F)(F)F)n1` [Example 202, 2-[4-[8-[4-(4-aminopiperidine-1-carbonyl)-3-chloroanilino]imidazo[1,2-a]pyrazin-3-yl]-3-(trifluoromethyl)pyrazol-1-yl]acetonitrile], the IC90 is 0.109 µM.

`C#CCn1cc(-c2cnc3c(Nc4ccc(C(=O)N5CCN(C(=O)[C@@H](C)N)CC5)c(CC)c4)nccn23)c(C(F)F)n1` [Example 747, (R)-2-amino-1-(4-(4-((3-(3-(difluoromethyl)-1-(prop-2-yn-1-yl)-1H-pyrazol-4-yl)imidazo[1,2-a]pyrazin-8-yl)amino)-2-ethylbenzoyl)piperazin-1-yl)propan-1-one]: the IC90 stood at 0.598 µM.

Take `CCc1cc(Nc2nccn3c(-c4cn(CC(F)F)nc4C(F)(F)F)cnc23)ccc1C(=O)NCCCNC(=O)[C@@H]1CCCN1` [Example 627, (S)-N-(3-(4-((3-(1-(2,2-difluoroethyl)-3-(trifluoromethyl)-1H-pyrazol-4-yl)imidazo[1,2-a]pyrazin-8-yl)amino)-2-ethylbenzamido)propyl) pyrrolidine-2-carboxamide]: the IC90 was found to be 0.19 µM.

With `N#CCn1cc(-c2cnc3c(Nc4ccc(C(=O)N5CCN(C(=O)[C@H]6CCNC6)CC5)c(Cl)c4)nccn23)c(C(F)(F)F)n1` [Example 190, 2-[4-[8-[3-chloro-4-[4-[(3S)-pyrrolidine-3-carbonyl]piperazine-1-carbonyl]anilino]imidazo[1,2-a]pyrazin-3-yl]-3-(trifluoromethyl)pyrazol-1-yl]acetonitrile], the 90% effect concentration (IC90) turned out to be 0.245 µM.

Take `CCc1cc(Nc2nccn3c(-c4c[nH]nc4C(F)(F)F)cnc23)ccc1C(=O)NCCCNC(=O)[C@@H](C)NC(=O)C(F)(F)F` [Example 748, (R)-2-ethyl-N-(3-(2-(2,2,2-trifluoroacetamido)propanamido)propyl)-4-((3-(3-(trifluoromethyl)-1H-pyrazol-4-yl)imidazo[1,2-a]pyrazin-8-yl)amino) benzamide]: the IC90 was 0.608 µM.

As for `Cc1cc(Nc2nccn3c(-c4c[nH]nc4C(F)(F)F)cnc23)ccc1C(=O)N1CCN(C(=O)[C@@H]2CNCC[C@H]2O)CC1` (racemic) [Example 467, [2-methyl-4-[[3-[3-(trifluoromethyl)-1H-pyrazol-4-yl]imidazo[1,2-a]pyrazin-8-yl]amino]phenyl]-[4-[rac-(3R,4R)-4-hydroxypiperidine-3-carbonyl]piperazin-1-yl]methanone hydrochloride], the IC90 stood at 1.42 µM.

`CCc1cc(Nc2nccn3c(-c4cn(CC#N)nc4C(F)(F)F)cnc23)ccc1C(=O)NCCOCC(C)(C)N` [Example 60, N-[2-(2-amino-2-methylpropoxy)ethyl]-4-[[3-[1-(cyanomethyl)-3-(trifluoromethyl)pyrazol-4-yl]imidazo[1,2-a]pyrazin-8-yl]amino]-2-ethylbenzamide]: the IC90 came out at 0.23 µM.

In the case of `CCc1cc(Nc2nccn3c(-c4cn(C(C)C#N)nc4C(F)(F)F)cnc23)ccc1C(=O)NCCOCCN1CCOCC1` (stereo not drawn) [Example 745, 4-((3-(1-(1-cyanoethyl)-3-(trifluoromethyl)-1H-pyrazol-4-yl)imidazo[1,2-a]pyrazin-8-yl)amino)-2-ethyl-N-(2-(2-morpholinoethoxy)ethyl) benzamide formate], the IC90 worked out at 0.569 µM.

`CCc1cc(Nc2nccn3c(-c4c[nH]nc4C(F)(F)F)cnc23)ccc1C(=O)NCCCCCN` [Example 319, N-(5-aminopentyl)-2-ethyl-4-[[3-[3-(trifluoromethyl)-1H-pyrazol-4-yl]imidazo[1,2-a]pyrazin-8-yl]amino]benzamide hydrochloride]: the IC90 stood at 0.438 µM.

In the case of `CCc1cc(Nc2nccn3c(-c4cn(CC(F)F)nc4C(F)(F)F)cnc23)ccc1C(=O)NCC(=O)N[C@@H]1CCNC1` [Example 648, 4-[[3-[1-(2,2-difluoroethyl)-3-(trifluoromethyl)pyrazol-4-yl]imidazo[1,2-a]pyrazin-8-yl]amino]-2-ethyl-N-[2-oxo-2-[[(3R)-pyrrolidin-3-yl]amino]ethyl] benzamide formate], the concentration for an effect of 90% (IC90) came out at 0.246 µM.

Still in this assay, the particulars now being: strain ATCC 17961, OD600 growth over 16 h, read-out: A. baumannii ATCC 17961 IC90.
For the compound `O=C(NC1CCN(C(=O)c2ccc(Nc3nccn4c(-c5c[nH]nc5C(F)(F)F)cnc34)cc2Cl)CC1)N[C@H]1CCNC1` [Example 144, 1-[1-[2-choro-4-[[3-[3-(trifluoromethyl)-1H-pyrazol-4-yl]imidazo[1,2-a]pyrazin-8-yl]amino]benzoyl]piperidin-4-yl]-3-[(3S)-pyrrolidin-3-yl]urea], the IC90 is 0.335 µM.
